Experimental data: PMC7144320, “Antitumor properties of certain spirooxindoles towards hepatocellular carcinoma endowed with antioxidant activity” (Journal of Enzyme Inhibition and Medicinal Chemistry, 2020)
Values joined by “and” are separate entries in the source; they are usually repeats but may differ in a detail not shown here. Equal entries are not always repeated.

Experiments:
[1] = system: HepG2 hepatocellular carcinoma cell line; experiment: MTT anti-proliferative assay, HepG2; assay type: cell-based; settings: Homo sapiens, 48 h of incubation
Experimental: (§1) Spirooxindoles 6a–p were evaluated for their anti-proliferative potency towards HepG2 liver cancer and PC-3 prostate cancer cell lines. Both cells lines were cultured as monolayers in DMEM supplemented with 10% foetal bovine serum (FBS), L-glutamine (2 mM), penicillin (100 U/mL) and streptomycin sulphate (100 µg/mL). Then, cells were sub-cultured with trypsine/EDTA solution, counted with haemocytometer and plated onto 96-well plates (5000 cells/well) and left overnight so as to form a semi-confluent monolayer.
(§2) Spirooxindoles 6a–p were tested for their in vitro anti-HCC activity against HepG2 cell line, and for their anti-prostate cancer activity against PC-3 cell line by the use of MTT reduction assay. The anticancer drug Adriamycin was co-assayed as the positive control.

[2] = system: PC-3 prostate cancer cell line; experiment: MTT anti-proliferative assay, PC-3; assay type: cell-based; settings: 48 h of incubation
Experimental: as §1, §2

[3] = DPPH radical scavenging assay; settings: mean ± SD of three experiments; 30 min, 517 nm
Experimental: The antioxidant potential of spirooxindoles 6a–p against DPPH˙ was evaluated as per previously described procedures by Brand-Williams et al.[32]. DPPH solution was prepared by dissolving 0.024 g DPPH in methanol (100 mL). In 96-well plates, × μL sample and 200-x μL DPPH solution were added. The plate was incubated for 30 min at room temperature in the dark, and finally, absorbance was recorded at 517 nm wavelength. Ascorbic acid was used as positive control. The percent radical scavenging potential was calculated for each compound via the following equation: Scavenging effect (%) = {(Absorbance of control − Absorbance of sample)/Absorbance of control} × 100.
The DPPH (2,2-diphenyl-1-picrylhydrazyl) radical scavenging activity assay is considered as one of the most common and simple methods for measuring the antioxidant ability to trap free radicals. […] Substances that have the potential to act as electron donors result in reduction of this DPPH radical to the corresponding DPPH2 disclosing their antioxidant potential. The principle of the method relies upon measuring the absorbance of the odd electrons of DPPH at 517 nm. The absorbance decreases, in the presence of free radical scavengers, proportional to the decrease of the DPPH radical concentration.

[4] = Ferric reducing antioxidant power (FRAP); settings: 593 nm, 30 min at 37 °C
Experimental: The Benzie and Strain method[33] was adopted to assess the ferric reducing antioxidant power (FRAP) for spirooxindoles 6a–p. Absorbance of mixtures was recorded at 593 nm after incubation for 30 min at 37 °C. FRAP results were expressed as μM Fe^2+ equivalents.
FRAP assay is a widely used antioxidant assay that uses antioxidant substances as reducing agents in a redox-linked colorimetric reaction, wherein Fe^3+ is reduced to Fe^2+ at acidic pH that results in a formation of a coloured ferrous-probe complex from a colourless ferric-probe complex. In this assay, the electron donation capacity (reflecting the electron transfer ability) of the examined compounds is evaluated.
In this study, all spirooxindoles 6a–p herein reported were evaluated for their potential FRAP. The results were expressed as µM Fe^2+ equivalents and presented in Table 6, where the higher µM Fe^2+ equivalents value means higher FRAP and subsequently higher antioxidant capacity.

Bax = experiment: ELISA of apoptotic marker Bax in HepG2 cells; assay type: cell-based; settings: HepG2 treated at IC50 (6.9 µM)
Experimental: (§3) The levels of the apoptotic markers caspase-3, caspase-9, p53 and Bax, as well as the anti-apoptotic marker Bcl-2 were evaluated by the use of ELISA colorimetric kits per the manufacturer’s instructions, as reported earlier[28]^,[29]. Furthermore, the pro-apoptotic potential of spirooxindole 6a towards HepG2 cells was assessed using FITC Annexin V Apoptosis Detection Kit by flow cytometry, according to the manufacturer’s protocol and referring to the reported procedures[30]^,[31].
(§4) The Bax/Bcl-2 ratio is considered as a decisive value that gives a real insight to the overall pro-apoptotic impact of the examined compound.

[5] = system: HepG2 hepatocellular carcinoma cell line; experiment: MTT anti-proliferative assay, HepG2; assay type: cell-based; settings: 48 h exposure, phase contrast microscopy
caspase-3 = experiment: ELISA of active caspase-3 in HepG2 cells; assay type: cell-based; settings: HepG2 treated at IC50 (6.9 µM)
Experimental: as §3
(§5) The elevated Bax/Bcl-2 ratio aroused the assessment of the expression levels of the pro-apoptotic active caspase-3, caspase-9 and p53 tumour suppressor protein.

p53 = experiment: ELISA of p53 in HepG2 cells; assay type: cell-based; settings: HepG2 treated at IC50 (6.9 µM)
Experimental: as §3, §5

HepG2 cells [6] = experiment: Annexin V-FITC/PI apoptosis assay; assay type: cell-based; settings: HepG2, 6.9 µM (IC50)
Experimental: as §3

caspase-9 = experiment: ELISA of active caspase-9 in HepG2 cells; assay type: cell-based; settings: HepG2 treated at IC50 (6.9 µM)
Experimental: as §3, §5

HepG2 cells [7] = experiment: Cell cycle analysis (PI staining, flow cytometry); assay type: cell-based; settings: HepG2, 6.9 µM (IC50), 24 h
Experimental: The samples were analysed by a flow cytometer (BectonDickinson FACSCalibur, BD, USA) and data were analysed using the CellQuest software (Becton Dickinson).
The impact of spirooxindole 6a on the normal cell cycle progression was investigated using flow cytometric analysis of the DNA ploidy in HepG2 cells. […] Alteration of the Pre-G phase and arrest of G2-M phase may imply apoptosis as a potential mechanism for 6a-induced cancer cell death.

[8] = system: non-tumorigenic human breast MCF-10A cell line; experiment: Cytotoxicity towards non-tumorigenic MCF-10A cells; assay type: cell-based
Bcl-2 = experiment: ELISA of anti-apoptotic marker Bcl-2 in HepG2 cells; assay type: cell-based; settings: HepG2 treated at IC50 (6.9 µM)
Experimental: as §3, §4

Row | SMILES | IC50 [1] [µM] | IC50 [2] [µM] | DPPH radical scavenging IC50 [3] [µg/mL] | FRAP, µM (Fe^2+ Eq.) [4] | IC50 [8] [µM] | other results
1 | COc1cccc2c1C(=O)c1c(O)c3c(c(O)c1C2=O)C[C@@](O)(C(=O)CO)C[C@@H]3O[C@H]1C[C@H](N)[C@H](O)[C@H](C)O1 [Adriamycin, reference compound] | 0.12 | 0.62 | – | – | – | –
2 | O=C1O[C@H]([C@@H](O)CO)C(O)=C1O [Ascorbic acid, reference compound] | – | – | 45.89 ± 2.39 | 13.42 µM (Fe^2+ Eq.) | – | –
3 | N#CC1=C(c2ccccc2)Nc2c(c(-c3cccs3)nn2-c2ccccc2)C12C(=O)Nc1ccccc12 (stereo not shown) [Compound 6a] | 6.9 | 11.8 | 29.76 ± 1.82 | 11.98 µM (Fe^2+ Eq.) | 94.6 | Bax expression level (Bax): 232.2 ng/mL; Bax, folds of control (Bax): 5.7 folds of control; Bax/Bcl-2 ratio (Bax): 92.5; Morphological changes of HepG2 cells [5]: cell rounding, shrinkage and monolayer disruption; Caspase-3 expression level (caspase-3): 475.9 pg/mL; p53, folds of control (p53): ~10.03 folds of control and ~10 folds of control; p53 expression level (p53): 774.5 pg/mL; total increase in apoptosis with respect to control (HepG2 cells [6]): about 16.3 folds; late apoptosis (upper right quadrant), annexin-V positive cells (HepG2 cells [6]; control 0.33%): 14.14%; early apoptosis (lower right quadrant), annexin-V positive cells (HepG2 cells [6]; control 0.95%): 6.76%; Caspase-9, folds of control (caspase-9): ~12.27 folds of control; Caspase-9 expression level (caspase-9): 26.92 ng/mL; decrease of S phase with respect to control (HepG2 cells [7]): ~0.37 folds; increase of G2/M phase related to control (HepG2 cells [7]): 2.1 folds; increase of Pre-G phase related to control (HepG2 cells [7]): 11.9 folds; Bcl-2, folds of control (Bcl-2): 0.57 folds of control; Bcl-2 expression level (Bcl-2): 2.51 ng/mL; down-regulation of Bcl-2 expression compared to control (Bcl-2): ~42%
4 | Cc1ccc(C2=C(C#N)C3(C(=O)Nc4ccccc43)c3c(-c4cccs4)nn(-c4ccccc4)c3N2)cc1 (stereo not shown) [Compound 6b] | 21 | 34.2 | 113.45 ± 5.59 | 6.933 µM (Fe^2+ Eq.) | 122 | –
5 | COc1ccc(C2=C(C#N)C3(C(=O)Nc4ccccc43)c3c(-c4cccs4)nn(-c4ccccc4)c3N2)cc1 (stereo not shown) [Compound 6c] | 19.1 | 43.7 | 43.04 ± 2.39 | 10.32 µM (Fe^2+ Eq.) | 141 | –
6 | N#CC1=C(c2ccc(Cl)cc2)Nc2c(c(-c3cccs3)nn2-c2ccccc2)C12C(=O)Nc1ccccc12 (stereo not shown) [Compound 6d] | 49.1 | > 50 | 33.43 ± 1.24 | 10.99 µM (Fe^2+ Eq.) | – | –
7 | N#CC1=C(c2ccccc2)Nc2c(c(-c3cccs3)nn2-c2ccccc2)C12C(=O)Nc1ccc(Cl)cc12 (stereo not shown) [Compound 6e] | 8.4 | 13.5 | 36.03 ± 1.37 | 10.12 µM (Fe^2+ Eq.) | 69.7 | Morphological changes of HepG2 cells [5]: cell rounding, shrinkage and monolayer disruption
8 | Cc1ccc(C2=C(C#N)C3(C(=O)Nc4ccc(Cl)cc43)c3c(-c4cccs4)nn(-c4ccccc4)c3N2)cc1 (stereo not shown) [Compound 6f] | 32.7 | 29.3 | 40.31 ± 2.61 | 11.36 µM (Fe^2+ Eq.) | 159 | –
9 | COc1ccc(C2=C(C#N)C3(C(=O)Nc4ccc(Cl)cc43)c3c(-c4cccs4)nn(-c4ccccc4)c3N2)cc1 (stereo not shown) [Compound 6g] | > 50 | > 50 | 97.47 ± 5.62 | 7.79 µM (Fe^2+ Eq.) | – | –
10 | N#CC1=C(c2ccc(Cl)cc2)Nc2c(c(-c3cccs3)nn2-c2ccccc2)C12C(=O)Nc1ccc(Cl)cc12 (stereo not shown) [Compound 6h] | 19.9 | > 50 | 46.29 ± 2.18 | 11.35 µM (Fe^2+ Eq.) | – | –
11 | N#CC1=C(c2ccccc2)Nc2c(c(-c3cccs3)nn2-c2ccccc2)C12C(=O)Nc1ccc(Br)cc12 (stereo not shown) [Compound 6i] | 6.3 | 17.9 | 36.38 ± 2.71 | 11.88 µM (Fe^2+ Eq.) | 76.9 | Morphological changes of HepG2 cells [5]: cell rounding, shrinkage and monolayer disruption
12 | Cc1ccc(C2=C(C#N)C3(C(=O)Nc4ccc(Br)cc43)c3c(-c4cccs4)nn(-c4ccccc4)c3N2)cc1 (stereo not shown) [Compound 6j] | 9.9 | 26.6 | 43.42 ± 3.04 | 10.34 µM (Fe^2+ Eq.) | 146 | –
13 | COc1ccc(C2=C(C#N)C3(C(=O)Nc4ccc(Br)cc43)c3c(-c4cccs4)nn(-c4ccccc4)c3N2)cc1 (stereo not shown) [Compound 6k] | 13.2 | 39.1 | 69.25 ± 4.25 | 8.499 µM (Fe^2+ Eq.) | 136 | –
14 | N#CC1=C(c2ccc(Cl)cc2)Nc2c(c(-c3cccs3)nn2-c2ccccc2)C12C(=O)Nc1ccc(Br)cc12 (stereo not shown) [Compound 6l] | 12.7 | > 50 | 41.36 ± 2.17 | 11.59 µM (Fe^2+ Eq.) | – | –
15 | COc1ccc2c(c1)C1(C(=O)N2)C(C#N)=C(c2ccccc2)Nc2c1c(-c1cccs1)nn2-c1ccccc1 (stereo not shown) [Compound 6m] | 30.6 | 24.3 | 28.07 ± 1.63 | 12.13 µM (Fe^2+ Eq.) | 186 | –
16 | COc1ccc2c(c1)C1(C(=O)N2)C(C#N)=C(c2ccc(C)cc2)Nc2c1c(-c1cccs1)nn2-c1ccccc1 (stereo not shown) [Compound 6n] | > 50 | 42.8 | 46.29 ± 2.52 | 11.58 µM (Fe^2+ Eq.) | – | –
17 | COc1ccc(C2=C(C#N)C3(C(=O)Nc4ccc(OC)cc43)c3c(-c4cccs4)nn(-c4ccccc4)c3N2)cc1 (stereo not shown) [Compound 6o] | > 50 | > 50 | 58.82 ± 3.14 | 11.90 µM (Fe^2+ Eq.) | – | –
18 | COc1ccc2c(c1)C1(C(=O)N2)C(C#N)=C(c2ccc(Cl)cc2)Nc2c1c(-c1cccs1)nn2-c1ccccc1 (stereo not shown) [Compound 6p] | > 50 | > 50 | 55.05 ± 3.41 | 11.18 µM (Fe^2+ Eq.) | – | –
